Data published in US10077261B2, “Imidazolin-5-one derivative useful as FASN inhibitors for the treatment of cancer” (Janssen Pharmaceutica NV, priority 2012, dated 2018).

Target: T1, hFASN enzyme (full length) (Homo sapiens, UniProt P49327)
T1 construct: 10 μL hFASN enzyme (full length, 300 ng, purified in house); made in house
Experiment: Fatty Acid Synthase (FASN) inhibition scintillation proximity assay
Assay type: biochemical
Settings: for inhibition at 10 µM: read-out: Human FASN % inhibition @ 10 μM, 10 μM test compound; for IC50: read-out: Human FASN pIC50 (converted)
Method in brief: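 Proximity read-out: hydrophobic ^3H-palmitate formed from ^3H-acetyl-CoA and malonyl-CoA binds streptavidin imaging beads, imaged at 610±20 nm at least 24 h after stopping. Enzyme was in-house purified full-length hFASN, 300 ng, in pH 7.5 phosphate/DTT buffer; compound series 30 μM down to 0.01 μM, normalized to controls, 4-parameter fit.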

T1 sequence (P49327 whole entry): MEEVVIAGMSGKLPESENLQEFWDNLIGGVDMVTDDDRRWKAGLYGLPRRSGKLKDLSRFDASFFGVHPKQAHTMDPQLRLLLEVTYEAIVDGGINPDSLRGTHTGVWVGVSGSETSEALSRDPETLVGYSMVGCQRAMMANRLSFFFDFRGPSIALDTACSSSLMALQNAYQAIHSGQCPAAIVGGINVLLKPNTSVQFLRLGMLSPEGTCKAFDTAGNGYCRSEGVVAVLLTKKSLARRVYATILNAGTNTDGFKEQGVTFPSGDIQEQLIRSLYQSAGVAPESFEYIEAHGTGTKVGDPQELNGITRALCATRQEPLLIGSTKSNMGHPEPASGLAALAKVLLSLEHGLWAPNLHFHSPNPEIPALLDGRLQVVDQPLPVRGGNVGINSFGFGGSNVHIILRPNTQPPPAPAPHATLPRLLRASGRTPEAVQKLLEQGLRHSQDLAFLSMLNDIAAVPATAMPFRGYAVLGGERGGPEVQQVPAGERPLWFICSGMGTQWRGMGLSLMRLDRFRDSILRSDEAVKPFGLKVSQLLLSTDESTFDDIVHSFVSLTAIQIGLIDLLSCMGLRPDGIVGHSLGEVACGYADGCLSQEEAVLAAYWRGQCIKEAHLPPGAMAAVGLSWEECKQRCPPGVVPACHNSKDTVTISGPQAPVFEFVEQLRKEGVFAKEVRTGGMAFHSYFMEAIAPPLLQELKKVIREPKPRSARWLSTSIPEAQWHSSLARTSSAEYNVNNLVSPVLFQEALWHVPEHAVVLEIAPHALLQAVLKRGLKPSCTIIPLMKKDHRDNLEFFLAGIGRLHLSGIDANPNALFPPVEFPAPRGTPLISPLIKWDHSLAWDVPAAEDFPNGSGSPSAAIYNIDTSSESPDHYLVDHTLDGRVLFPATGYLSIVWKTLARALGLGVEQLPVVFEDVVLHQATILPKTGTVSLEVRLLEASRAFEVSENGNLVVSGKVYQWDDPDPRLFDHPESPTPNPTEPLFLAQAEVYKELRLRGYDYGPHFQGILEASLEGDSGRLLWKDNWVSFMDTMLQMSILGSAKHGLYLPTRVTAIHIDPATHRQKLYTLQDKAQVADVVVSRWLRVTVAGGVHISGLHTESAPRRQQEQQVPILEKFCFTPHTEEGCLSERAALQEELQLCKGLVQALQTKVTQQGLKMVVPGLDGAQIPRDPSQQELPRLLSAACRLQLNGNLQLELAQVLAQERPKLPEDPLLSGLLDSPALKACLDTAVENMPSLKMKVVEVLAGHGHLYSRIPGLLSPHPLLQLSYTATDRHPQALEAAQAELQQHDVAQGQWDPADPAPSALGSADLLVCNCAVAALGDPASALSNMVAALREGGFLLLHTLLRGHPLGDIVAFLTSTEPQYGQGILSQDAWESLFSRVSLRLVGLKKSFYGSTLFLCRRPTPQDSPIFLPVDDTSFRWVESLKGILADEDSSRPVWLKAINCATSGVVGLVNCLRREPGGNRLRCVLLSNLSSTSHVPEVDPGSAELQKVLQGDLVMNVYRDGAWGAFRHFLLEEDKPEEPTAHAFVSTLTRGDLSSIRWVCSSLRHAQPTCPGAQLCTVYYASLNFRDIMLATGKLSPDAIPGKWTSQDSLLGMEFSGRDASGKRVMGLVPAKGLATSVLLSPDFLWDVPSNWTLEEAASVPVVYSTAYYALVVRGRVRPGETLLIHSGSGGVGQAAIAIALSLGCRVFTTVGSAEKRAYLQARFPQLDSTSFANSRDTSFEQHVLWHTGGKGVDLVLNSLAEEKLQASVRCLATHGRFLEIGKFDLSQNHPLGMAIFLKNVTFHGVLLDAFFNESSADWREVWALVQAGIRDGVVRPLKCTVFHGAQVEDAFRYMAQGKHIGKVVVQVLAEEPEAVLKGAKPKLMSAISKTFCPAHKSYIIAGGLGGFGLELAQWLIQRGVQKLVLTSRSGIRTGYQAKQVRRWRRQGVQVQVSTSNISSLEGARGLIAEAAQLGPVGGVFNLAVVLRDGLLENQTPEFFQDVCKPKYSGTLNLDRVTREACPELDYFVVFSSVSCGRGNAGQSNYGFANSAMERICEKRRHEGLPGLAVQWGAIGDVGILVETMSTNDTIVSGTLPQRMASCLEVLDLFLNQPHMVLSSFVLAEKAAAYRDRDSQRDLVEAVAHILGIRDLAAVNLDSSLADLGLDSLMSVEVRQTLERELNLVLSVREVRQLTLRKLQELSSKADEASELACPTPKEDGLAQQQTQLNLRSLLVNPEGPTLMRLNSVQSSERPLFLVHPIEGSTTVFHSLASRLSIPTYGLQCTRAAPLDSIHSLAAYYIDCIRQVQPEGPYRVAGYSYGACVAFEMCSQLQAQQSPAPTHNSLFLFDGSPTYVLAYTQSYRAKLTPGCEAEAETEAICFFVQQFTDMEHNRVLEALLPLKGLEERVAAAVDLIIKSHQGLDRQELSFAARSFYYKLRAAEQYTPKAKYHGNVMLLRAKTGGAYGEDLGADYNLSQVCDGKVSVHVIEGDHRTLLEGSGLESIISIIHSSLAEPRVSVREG

Compound | Human FASN % inhibition @ 10 μM (10 μM test compound, 10 µM) [%] | Human FASN pIC50 (hFASN enzyme, full length, "~" means standard error of the pIC50 is larger than 0.5) | inhibition at 10 µM [%] | IC50 [nM]
O=C(C1CC1)N1CCC(CN2C(=O)C3(CC3)N=C2c2ccc(-c3ccc(C(F)(F)F)cc3)cc2)CC1 [compound 859, 6-((1-(cyclopropanecarbonyl)piperidin-4-yl)methyl)-5-(4′-(trifluoromethyl)-[1,1′-biphenyl]-4-yl)-4,6-diazaspiro[2.4]hept-4-en-7-one] | 11 | <5 |  | 
N#CC1(c2ccc(-c3ccc(C4=NC5(CC5)C(=O)N4CC4CN(C(=O)C5CC5)C4)cc3)cn2)CC1 [compound 800, 1-(5-(4-(6-((1-(cyclopropanecarbonyl)azetidin-3-yl)methyl)-7-oxo-4,6-diazaspiro[2.4]hept-4-en-5-yl)phenyl)pyridin-2-yl)cyclopropanecarbonitrile] |  |  | 16 | > 10000
Cc1cccc(-c2ccc(C3=NC4(CC4)C(=O)N3CC3CCN(C(=O)C4CC4)CC3)cc2)c1 [compound 111, 6-{[1-(Cyclopropylcarbonyl)piperidin-4-yl]methyl}-5-(3′-methylbiphenyl-4-yl)-4,6-diazaspiro[2.4]hept-4-en-7-one] |  |  | 62.2 | 4370
O=C(C1CC1)N1CC(CN2C(=O)C3(CCOC3)N=C2c2ccc(-c3ccc4occc4c3)cc2)C1 (centres unmarked) [compound 718, 2-[4-(1-Benzofuran-5-yl)phenyl]-3-{[1-(cyclopropylcarbonyl)azetidin-3-yl]methyl}-7-oxa-1,3-diazaspiro[4.4]non-1-en-4-one] |  |  | 72 | ~2400
O=C(C1CC1)N1CCC(CN2C(=O)C3(CC3)N=C2c2ccc(-c3cccc(F)c3)cc2)CC1 [compound 158, 6-{[1-(Cyclopropylcarbonyl)piperidin-4-yl]methyl}-5-(3′-fluorobiphenyl-4-yl)-4,6-diazaspiro[2.4]hept-4-en-7-one] |  |  | 33 | > 10000
CN(C)CC(=O)N1CCC2(CC1)N=C(c1ccc(-c3ccc4c(cnn4C)c3)cc1)N(C[C@@H]1CCN(C(=O)C3CC3)C1)C2=O [compound 141, 3-{[(3R)-1-(Cyclopropylcarbonyl)pyrrolidin-3-yl]methyl}-8-(N,N-dimethylglycyl)-2-[4-(1-methyl-1H-indazol-5-yl)phenyl]-1,3,8-triazaspiro[4.5]dec-1-en-4-one] |  |  | 110 | 251
COC(=O)N1CC[C@@H](CN2C(=O)C3(CCOC3)N=C2c2ccc(-c3ccc4c(cnn4C)c3)cc2)C1 (stereo partly drawn) [compound 915, (3S)-methyl 3-((2-(4-(1-methyl-1H-indazol-5-yl)phenyl)-4-oxo-7-oxa-1,3-diazaspiro[4.4]non-1-en-3-yl)methyl)pyrrolidin-1-carboxylate] |  |  | 11 | > 10000
O=C(C1CC1)N1CC(CN2C(=O)C3(CC3)N=C2c2ccc(-c3ccc4[nH]ncc4c3)c(F)c2)C1 [compound 451, 6-{[1-(Cyclopropylcarbonyl)azetidin-3-yl]methyl}-5-[3-fluoro-4-(1H-indazol-5-yl)phenyl]-4,6-diazaspiro[2.4]hept-4-en-7-one] |  |  | 82 | 1260
COC(=O)c1cccc(-c2ccc(C3=NC4(CC4)C(=O)N3C[C@@H]3CCN(C(=O)C4CC4)C3)cc2)c1 [compound 401, Methyl 4′-(6-{[(3R)-1-(cyclopropylcarbonyl)pyrrolidin-3-yl]methyl}-7-oxo-4,6-diazaspiro[2.4]hept-4-en-5-yl)biphenyl-3-carboxylate] |  |  | 70 | 3720
O=C(C1CC1)N1CC(CN2C(=O)C3(CC3)N=C2c2ccc(-c3ccc(N4CCCC4)nc3)cc2)C1 [compound 482, 6-{[1-(Cyclopropylcarbonyl)azetidin-3-yl]methyl}-5-[4-(6-pyrrolidin-1-ylpyridin-3-yl)phenyl]-4,6-diazaspiro[2.4]hept-4-en-7-one] |  |  | 76 | 1320
